The results in this text go back to patent publication US20220054494A1, “METHODS FOR TREATING BLADDER AND URETHRA DYSFUNCTION AND DISEASE” (University of Pittsburgh - Of the Commonwealth System of …, priority 2019, published 2022).

Experiment [1] concerns p16. Put plainly: Western immunoblotting, senescence marker p16. It is filed as in vivo, rat. Here is the method: Western immunoblotting and transmission electron microscopy: Following these testing paradigms, rats were deeply anesthetized, bladders were removed, and one half of each bladder (using the smooth muscle layer) was homogenized using Lysing Matrix D in a FASTPREP-24™ instrument (MP BIOMEDICALS™, Solon, Ohio) in HBSS (5 mM KCl, 0.3 mM KH2PO4, 138 mM NaCl, 4 mM NaHO3, 0.3 mM Na2HCO3, 0.3 mM Na2HPO4, 5.6 mM glucose and 10 mM Hepes, pH 7.4) containing complete protease inhibitor cocktail (1 tablet/10 ml, ROCHE™, Indianapolis, Ind.) and phosphatase inhibitor cocktail (SIGMA®, 1:100). Whole rat kidney was also homogenized using the same procedure. After centrifugation (13000 rpm; 15 min at 4° C.), the membrane protein fraction was prepared by suspending the membrane pellets in lysis buffer containing 0.3 M NaCl, 50 mM Tris-HCl (pH 7.6), 0.5% Triton X-100, and the same concentration of protease inhibitors as above. […] The protein concentrations of the combined supernatants were determined using the PIERCE™ BCA protein assay (THERMO SCIENTIFIC™, Rockford, Ill.). […] As a loading control, total protein per sample was determined using BIO-RAD™ Stain Free SDS-PAGE gel technology. UV-activated protein fluorescence was imaged on a CHEMIDOC™ MP (BIO-RAD™). […] The volume (intensity) of each protein species was determined and normalized to total protein using Image Lab software (BIO-RAD™). […]
(In general: Immunoblotting shows a protein as a band on a membrane.)

For experiment [2], the system named is hydroxyproline. Put plainly: Hydroxyproline in detrusor smooth muscle (indicator of fibrosis). It is filed as in vivo, rat. As to conditions: aged rats; oral 8-AG 5 mg/kg/day, 6 weeks.

Entries after “also recorded” stand apart in the source; their conditions may differ.

`Nc1nc2[nH]c(N)nc2c(=O)[nH]1` [8-AG, 8-Aminoguanine]: in experiment [1] (aged Fisher 344 rats, 8-AG 5 mg kg/day via drinking water, 1 month), the “senescence marker p16 in bladder smooth muscle” value is given as “restored to a younger state; also recorded: restored to levels similar to the younger state”. Moreover, in experiment [1] (aged rats, oral 8-AG 5 mg/kg/day, 6 weeks), the “senescence marker p16 in detrusor smooth muscle” value was “levels similar to the younger state; also recorded: restored these biomarkers to that of a younger state”. The “hydroxyproline in detrusor smooth muscle” value in experiment [2] is reported as “levels similar to the younger state; also recorded: restored these biomarkers to that of a younger state”.
